From PubChem BioAssay (NCI)
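Dose response: 5 concentrations. Exposure: 48 h. Format: 96-well plates. Endpoint: linear interpolation; highest concentration if not reached. GI50 marks 50% less growth. TGI: concentration producing complete growth inhibition.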

Key:
Assay in all cases: inhibition of tumour cell growth, NCI panel, 48 h
HL-60(TB) leukemia = system: HL-60(TB) leukemia
HOP-62 NSCLC = system: HOP-62 NSCLC
SR leukemia = system: SR leukemia
786-0 renal = system: 786-0 renal
RPMI-8226 leukemia = system: RPMI-8226 leukemia
NCI-H460 lung = system: NCI-H460 lung
HCC-2998 colon = system: HCC-2998 colon
A498 renal = system: A498 renal
MDA-N = system: MDA-N
RXF 393 renal = system: RXF 393 renal
HOP-92 NSCLC = system: HOP-92 NSCLC
SK-MEL-28 melanoma = system: SK-MEL-28 melanoma
MOLT-4 leukemia = system: MOLT-4 leukemia

Structure (SMILES) | TGI (HL-60(TB) leukemia) | TGI (HOP-62 NSCLC) | TGI (SR leukemia) | TGI (786-0 renal) | TGI (RPMI-8226 leukemia) | TGI (NCI-H460 lung) | TGI (HCC-2998 colon) | TGI (A498 renal) | TGI (MDA-N) | TGI (RXF 393 renal) | TGI (HOP-92 NSCLC) | TGI (SK-MEL-28 melanoma) | TGI (MOLT-4 leukemia) | GI50 (HL-60(TB) leukemia) | GI50 (HOP-62 NSCLC) | GI50 (NCI-H460 lung) | GI50 (A498 renal) | GI50 (MDA-N) | GI50 (HOP-92 NSCLC)
COc1ccccc1CNC(=O)[C@H](Cc1ccc(O)cn1)NC(C)=O | > 100 µM | > 100 µM | > 100 µM | > 100 µM | > 100 µM | > 100 µM | > 100 µM | > 100 µM | > 100 µM | > 100 µM | > 100 µM | > 100 µM |  |  |  |  |  |  | 
C=CCn1c(-c2ccc(-c3cs/c(=N\N=O)n3CC=C)cc2)cs/c1=N\N=O | > 100 µM | > 100 µM | > 100 µM | > 100 µM |  | > 100 µM | > 100 µM | > 100 µM | > 100 µM | 53 µM | > 100 µM | > 100 µM | > 100 µM |  |  |  |  |  | 
C[C@]12CC[C@H](O)CC1=CC[C@@H]1C2CC[C@]2(C)Nc3c(cnn3-c3ccc(F)cc3)CC12 (some centres not stated) | > 100 µM | 61.1 µM | > 100 µM | 16 µM |  | > 100 µM | > 100 µM | > 47.6 µM | > 100 µM | 7.7 µM | 63.6 µM | > 100 µM | > 100 µM |  |  |  |  |  | 
COP(=O)(OC)/C(=C\c1cn(C(c2ccccc2)(c2ccccc2)c2ccccc2)cn1)NC(C)=O | > 100 µM | > 100 µM | > 100 µM | > 100 µM |  | > 100 µM | > 100 µM | > 100 µM | > 100 µM | 83.6 µM | > 100 µM | > 100 µM | > 100 µM |  |  |  |  |  | 
C/C(=N\Nc1nc2ccccc2s1)c1cc(C)ncn1 | > 100 µM | 18.3 µM | 9.82 µM | > 47.3 µM | > 21 µM | 9.16 µM | 14.6 µM | > 100 µM | 47.3 µM | 20 µM | > 30.6 µM | > 55.8 µM | 4.15 µM |  |  |  |  |  | 
CC(=O)OCC(Br)C1(C)CCC(C(C)(C)Br)O1 (configuration not stated) | > 100 µM | > 100 µM | > 100 µM | > 100 µM | > 100 µM | > 100 µM | > 100 µM | > 100 µM | > 100 µM | > 100 µM | > 100 µM | > 100 µM | > 100 µM |  |  |  |  |  | 
O=C(/C=C(\O)c1ccccc1)c1cc(-c2ccccc2)n(-c2ccccc2)n1 | > 100 µM | 23.9 µM | 5.2 µM | 67.8 µM | 6.1 µM | 98.4 µM | > 100 µM | > 100 µM | > 100 µM | > 100 µM |  |  | 4.51 µM |  |  |  |  |  | 
Nc1nc(N)c2nc(CNc3ccc(C(=O)NC(CCCCNC(=O)c4ccccc4C(=O)O)C(=O)O)cc3)cnc2n1 (configuration not stated) | > 100 µM | > 100 µM | > 100 µM | > 100 µM | > 100 µM | > 100 µM | > 100 µM | > 100 µM | > 100 µM | > 100 µM | > 100 µM | > 100 µM | > 100 µM | 0.00244 µM | 0.0305 µM | 0.00424 µM | 0.0821 µM | 0.00464 µM | > 100 µM
CCOC(=O)c1c(N2CCCC2)[nH]c(=O)c(C(c2cccs2)c2c(O)c(C(=O)OCC)c(N3CCCC3)[nH]c2=O)c1O |  | > 100 µM | > 100 µM | > 100 µM | > 100 µM | > 100 µM | > 100 µM | > 100 µM | > 100 µM | > 100 µM | > 100 µM | > 100 µM | > 100 µM |  |  |  |  |  | 
O=C1c2ccccc2C(=O)c2oc(Br)cc21 | 1.17 µM | 4.05 µM | 5.78 µM | 2.98 µM | 6.99 µM | 2.64 µM | 3.27 µM | 3.49 µM | 0.267 µM | 2.87 µM | 4.23 µM | 0.934 µM | 4.27 µM |  |  |  |  |  | 
CN(C)Cc1cc(N=Nc2ccc(Cl)cc2)ccc1OC(=O)c1ccccc1 | 43.7 µM | 26.5 µM | 31.8 µM | 27.8 µM | 40.7 µM | 32.4 µM | 31 µM | 31.5 µM | 30.1 µM | 30.1 µM | 11.1 µM | 29.7 µM | 26.1 µM |  |  |  |  |  | 
NC(=O)c1cccc([C@@H]2O[C@H](CO)[C@@H](O)[C@H]2O)c1 | 10.2 µM | 28 µM | > 82.2 µM | 12.3 µM | 29.8 µM | > 100 µM | > 87.6 µM | > 100 µM | > 100 µM | 34.6 µM | > 69.6 µM | 29.6 µM | 8.45 µM |  |  |  |  |  | 
Cc1cccc2c(=O)c3cccc([C@@H](C)C(=O)O)c3oc12 | > 100 µM | > 100 µM | > 100 µM | > 100 µM | > 100 µM | > 100 µM | > 100 µM | > 100 µM | > 100 µM |  | > 100 µM | > 100 µM | > 100 µM |  |  |  |  |  | 
COc1ccc(CCc2nccn2C)cc1OC | > 100 µM | > 100 µM | > 100 µM | > 100 µM | > 100 µM | > 100 µM | > 100 µM | > 100 µM | > 100 µM |  | > 100 µM | > 100 µM | > 100 µM |  |  |  |  |  | 
Cc1c(C)c(S(=O)(=O)N(CCCCCON)OCCCN)c(C)c2c1OC(C)(C)CC2 | 17.3 µM | 31.8 µM | > 21.7 µM | > 100 µM | 32 µM | 22.4 µM |  | 28.3 µM | 27.3 µM | 25.1 µM | 23 µM | 32.2 µM | 30 µM |  |  |  |  |  | 
CC(C)C(NC(=O)C(Cc1ccccc1)NC(=O)[C@H]1CCC[C@H]1NC(=O)C(N)Cc1ccc(O)cc1)C(N)=O (some centres not stated) | > 100 µM | > 100 µM | > 100 µM | > 100 µM | > 100 µM | > 100 µM | > 100 µM | > 100 µM | > 100 µM | > 100 µM | > 100 µM | > 100 µM | > 100 µM |  |  |  |  |  | 
CCOP(=O)(OCC)/C(C#N)=C/c1ccnc2ccccc12 |  | > 100 µM | 73.6 µM | 51.2 µM | > 100 µM | > 100 µM | > 100 µM | > 100 µM | 42.2 µM | 79.1 µM | 43.7 µM | > 100 µM | > 100 µM |  |  |  |  |  | 
CC(C)(C)C1CCC2c3c([nH]c4ccccc34)C3C(=O)N(c4ccc5c(c4)C(=O)c4ccccc4C5=O)C(=O)C3C2C1 (configuration not stated) | > 100 µM | > 100 µM | > 100 µM | > 100 µM | > 100 µM | > 100 µM | > 100 µM | > 100 µM | > 100 µM | > 100 µM |  | > 100 µM | > 100 µM |  |  |  |  |  | 
CC(=O)c1sc(=N)n(-c2c(C)cccc2C)c1C | > 100 µM | > 100 µM | > 100 µM | > 100 µM | > 100 µM | > 100 µM | > 100 µM | > 100 µM | > 100 µM | > 100 µM |  | > 100 µM | > 100 µM |  |  |  |  |  | 
COC(=O)c1c(-c2ccccc2)c2sc3ccccc3n2c1N |  | > 100 µM | > 100 µM | > 100 µM | > 100 µM | > 100 µM | > 100 µM | 91.1 µM | > 100 µM | 55.1 µM | 98 µM | > 100 µM |  |  |  |  |  |  | 
O=c1[nH]n(Cc2ccccc2Cl)c2ccccc12 | > 100 µM | > 100 µM | > 100 µM | > 100 µM | > 100 µM | > 100 µM | > 100 µM | > 100 µM | > 100 µM |  | > 100 µM | > 100 µM | > 100 µM |  |  |  |  |  | 
CC1OC(OC2C(Oc3cc(O)c4c(c3)O[C@H](c3ccc(O)cc3)CC4=O)OC(CO)C(O)C2O)C(O)C(O)C1O (some centres not stated) | > 100 µM | > 100 µM | > 100 µM | > 100 µM | > 100 µM |  | > 100 µM | > 100 µM | > 100 µM | > 100 µM | > 100 µM | > 100 µM | > 100 µM |  |  |  |  |  | 
COCCOC(=O)C(C)=[N+]=[N-] |  | > 100 µM | > 100 µM | > 100 µM | > 100 µM | > 100 µM | > 100 µM | > 100 µM | > 100 µM | > 100 µM |  | > 100 µM |  |  |  |  |  |  | 
C/C=C/[C@H](O[Si](C)(C)C(C)(C)C)[C@@H](O)/C=C/C(=O)OCC |  | 39.8 µM | 44.1 µM | 41.5 µM | 12.1 µM | 34.6 µM | 34.8 µM | 67.9 µM | 42.8 µM | 43.1 µM | 46.3 µM | 32.4 µM | 37.6 µM |  |  |  |  |  | 
O=C(NNC(=O)c1ccccc1O)c1ccc(O)cc1 | > 100 µM | > 100 µM | > 100 µM | > 100 µM | > 100 µM | > 100 µM |  | > 100 µM | > 100 µM | > 100 µM |  | > 100 µM | > 100 µM |  |  |  |  |  | 
COc1cc2c(cc1OC)C(=O)N(NC1=NCCN1)C2=O | > 100 µM | > 100 µM | > 100 µM | > 100 µM | > 100 µM | > 100 µM | > 100 µM | > 100 µM | > 100 µM | > 100 µM |  | > 100 µM | > 100 µM |  |  |  |  |  | 
CCOP(=O)(OCC)/C(C#N)=C/c1c[nH]c2ccccc12 | > 100 µM | > 100 µM | > 100 µM | > 100 µM | > 100 µM | > 100 µM | > 100 µM | > 100 µM | > 100 µM | > 100 µM | > 100 µM | > 100 µM |  |  |  |  |  |  | 
